Data on 62 compounds can be found in patent US6534524B1, “Indazole compounds and pharmaceutical compositions for inhibiting protein kinases, and methods for their use” (Agouron Pharmaceuticals, Inc., priority 1999, dated 2003).

A word on the % inhibition: it is the relative decrease from the control value, in per cent. As a reminder, the IC50 is the concentration at which inhibition is half-maximal.

The experiment has as its system human umbilical vein endothelial cells (HUVEC). The experiment in a line: HUVEC proliferation assay (VEGF-stimulated, MTT).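 For % inhibition of the proliferation of HUVEC: relative to VEGF-stimulated control minus starvation-medium baseline.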 To be noted: for % inhibition: Library III, HUVEC proliferation, nominal concentration of 0.5 nM; for % inhibition / % inhibition of the proliferation of HUVEC: crude reaction mixtures. The class given is cell-based.
[1] abbreviates: Homo sapiens, HUVEC, + albumin, read-out: HUVEC + albumin IC50.
The mark [2] stands for this setting: Library I, Y = CO, nominal concentration of 10 nM.
Setting [3] is: Library I, Y = NH, nominal concentration of 10 nM.
Setting [4] is: Library I, Y = O, nominal concentration of 10 nM.

Where two headings read alike, the source gives them in different places.

As to `O=C(Nc1cc(O)c2ccccc2n1)c1ccccc1Sc1ccc2c(/C=C/c3ccccn3)n[nH]c2c1`, the “% inhibition” value stood at 4%.
Still for that read-out and setting: under `O=C(Nc1ccccc1F)c1ccccc1Sc1ccc2c(/C=C/c3ccccn3)n[nH]c2c1` stands 17%; under `C[n+]1ccc(NC(=O)c2ccccc2Sc2ccc3c(/C=C/c4ccccn4)n[nH]c3c2)cc1`, 0%; under `N#Cc1nc(NC(=O)c2ccccc2Sc2ccc3c(/C=C/c4ccccn4)n[nH]c3c2)[nH]c1C#N`, −28%.
Same read-out and setting: under `N#Cc1[nH]cnc1NC(=O)c1ccccc1Sc1ccc2c(/C=C/c3ccccn3)n[nH]c2c1` stands −13%.
Still for that read-out and setting: as for `CC(C)(C)c1cc(NC(=O)c2ccccc2Sc2ccc3c(/C=C/c4ccccn4)n[nH]c3c2)n[nH]1`, the figure is −21%; as for `N/C(=N\O)c1[nH]cnc1NC(=O)c1ccccc1Sc1ccc2c(/C=C/c3ccccn3)n[nH]c2c1`, −15%.
Turning to `O=C(Nc1cc(Cl)nc(Cl)c1)c1ccccc1Sc1ccc2c(/C=C/c3ccccn3)n[nH]c2c1`, the “% inhibition” value is 0%.
With `COc1cccc(OC)c1CNC(=O)c1ccccc1Sc1ccc2c(/C=C/c3ccccn3)n[nH]c2c1`, the “% inhibition” value is listed as −10%.
Same read-out and setting: under `CC(=O)Nc1ccc(NC(=O)c2ccccc2Sc2ccc3c(/C=C/c4ccccn4)n[nH]c3c2)cc1` stands −4%; under `O=C(NCc1ccccc1Cl)c1ccccc1Sc1ccc2c(/C=C/c3ccccn3)n[nH]c2c1`, 7%.
Take `O=C(NCCc1ccccc1Cl)c1ccccc1Sc1ccc2c(/C=C/c3ccccn3)n[nH]c2c1`: the “% inhibition” value amounted to 9%.
On the same count and under the same terms, under `COc1ccccc1CCNC(=O)c1ccccc1Sc1ccc2c(/C=C/c3ccccn3)n[nH]c2c1` stands 10%; under `O=C(Nc1ccc2[nH]c(=O)[nH]c2c1)c1ccccc1Sc1ccc2c(/C=C/c3ccccn3)n[nH]c2c1`, 15%; under `O=C(Nc1ccc(CO)cc1)c1ccccc1Sc1ccc2c(/C=C/c3ccccn3)n[nH]c2c1`, −18%.
Turning to `O=C(NCCCCCO)c1ccccc1Sc1ccc2c(/C=C/c3ccccn3)n[nH]c2c1`, the “% inhibition” value is −2%.
On to `O=C(NCc1cccc2ccccc12)c1ccccc1Sc1ccc2c(/C=C/c3ccccn3)n[nH]c2c1`, for which the “% inhibition” value was determined as 5%.
On to `Cc1cccc2sc(NC(=O)c3ccccc3Sc3ccc4c(/C=C/c5ccccn5)n[nH]c4c3)nc12`, for which the “% inhibition” value was −13%.
With `Cc1ccc2nc(NC(=O)c3ccccc3Sc3ccc4c(/C=C/c5ccccn5)n[nH]c4c3)sc2c1`, the “% inhibition” value is −9%.
Same read-out and setting: as for `CC(=O)c1sc(NC(=O)c2ccccc2Sc2ccc3c(/C=C/c4ccccn4)n[nH]c3c2)nc1C`, the figure is −2%; as for `CC(C)(C)c1csc(NC(=O)c2ccccc2Sc2ccc3c(/C=C/c4ccccn4)n[nH]c3c2)n1`, −6%.
The same measure, in the same setting: under `CCSc1nnc(NC(=O)c2ccccc2Sc2ccc3c(/C=C/c4ccccn4)n[nH]c3c2)s1` stands 17%.
Still for that read-out and setting: as for `Cc1cc(NC(=O)c2ccccc2Sc2ccc3c(/C=C/c4ccccn4)n[nH]c3c2)sn1`, the figure is 19%.
Consider `O=C(N[C@H]1CC[C@H](O)CC1)c1ccccc1Sc1ccc2c(/C=C/c3ccccn3)n[nH]c2c1`, for which the “% inhibition” value was 18%.
Same read-out and setting: under `CCOC(=O)N1CCC(NC(=O)c2ccccc2Sc2ccc3c(/C=C/c4ccccn4)n[nH]c3c2)CC1` stands −24%; under `O=C(NCCc1ccc(Cl)cc1)c1ccccc1Sc1ccc2c(/C=C/c3ccccn3)n[nH]c2c1`, 0%.
On the same count and under the same terms, under `O=C(NC1CCCCC1O)c1ccccc1Sc1ccc2c(/C=C/c3ccccn3)n[nH]c2c1` (centres unmarked) stands −6%; under `O=C(Nc1cc(O)nc(O)n1)c1ccccc1Sc1ccc2c(/C=C/c3ccccn3)n[nH]c2c1`, 3%; under `Cc1nnc(NC(=O)c2ccccc2Sc2ccc3c(/C=C/c4ccccn4)n[nH]c3c2)nc1C`, −20%.
Take `CCOC(=O)CNC(=O)c1ccccc1Sc1ccc2c(/C=C/c3ccccn3)n[nH]c2c1`: the “% inhibition” value is recorded as −16%.
Still for that read-out and setting: under `C#CC1(NC(=O)c2ccccc2Sc2ccc3c(/C=C/c4ccccn4)n[nH]c3c2)CCCCC1` stands 3%; under `Cc1cnc(CNC(=O)c2ccccc2Sc2ccc3c(/C=C/c4ccccn4)n[nH]c3c2)cn1`, 6%.
As to `O=C(NCCc1c[nH]c2ccccc12)c1ccccc1Sc1ccc2c(/C=C/c3ccccn3)n[nH]c2c1`, the “% inhibition” value is given as 18%.
Consider `CC(CO)(CO)NC(=O)c1ccccc1Sc1ccc2c(/C=C/c3ccccn3)n[nH]c2c1`, for which the “% inhibition” value is reported as −18%.
Regarding `COC(=O)c1ccc(C)c(NC(=O)c2ccccc2Sc2ccc3c(/C=C/c4ccccn4)n[nH]c3c2)c1`, the “% inhibition” value is recorded as −9%.
Same read-out and setting: as for `O=C(NCc1ccc2c(c1)CCO2)c1ccccc1Sc1ccc2c(/C=C/c3ccccn3)n[nH]c2c1`, the figure is 14%; as for `CSc1ccccc1NC(=O)c1ccccc1Sc1ccc2c(/C=C/c3ccccn3)n[nH]c2c1`, −10%; as for `CSc1ccc(NC(=O)c2ccccc2Sc2ccc3c(/C=C/c4ccccn4)n[nH]c3c2)cc1`, −7%.
`O=C(Nc1ncccc1O)c1ccccc1Sc1ccc2c(/C=C/c3ccccn3)n[nH]c2c1`: the “% inhibition” value worked out at 4%.
For `COc1cccc(NC(=O)c2ccccc2Sc2ccc3c(/C=C/c4ccccn4)n[nH]c3c2)c1`, the “% inhibition” value amounted to 11%.
For `Cc1cc(NC(=O)c2ccccc2Sc2ccc3c(/C=C/c4ccccn4)n[nH]c3c2)n[nH]1`, the “% inhibition” value came to 11%.
Still for that read-out and setting: under `CSc1cccc(NC(=O)c2ccccc2Sc2ccc3c(/C=C/c4ccccn4)n[nH]c3c2)c1` stands 8%; under `CC(C)(C)NC(=O)c1ccccc1Sc1ccc2c(/C=C/c3ccccn3)n[nH]c2c1`, 23%; under `O=C(NCCc1cccc(Cl)c1)c1ccccc1Sc1ccc2c(/C=C/c3ccccn3)n[nH]c2c1`, 0%.
Still for that read-out and setting: under `O=C(NCc1ccc(F)cc1)c1ccccc1Sc1ccc2c(/C=C/c3ccccn3)n[nH]c2c1` stands 57%.
Still for that read-out and setting: under `O=C(NCc1cccc(Cl)c1)c1ccccc1Sc1ccc2c(/C=C/c3ccccn3)n[nH]c2c1` stands 24%.
Consider “6-(3-Benzamidobenzoyl)-3-E-[N-(4H-1,2,4-triazol-4-yl)iminomethyl]-1H-indazole [Example 42(e)]”, for which the IC50 (+ albumin, read-out: HUVEC + albumin IC50) came out at 95 nM.
Regarding `NC(=O)c1ccccc1Sc1ccc2c(/C=C/c3ccccn3)n[nH]c2c1` [Example 35(d), 6-(2-Carbamoylphenylsulfanyl)-3-E-[2-(pyridin-2-yl)ethenyl]-1H-indazole], under setting [1], the IC50 was over 100 nM.
As to `CNCCNC(=O)c1ccccc1Sc1ccc2c(/C=C/c3ccccn3)n[nH]c2c1` [Example 35(gg), 6-[2-(2-(Methylamino)ethylcarbamoyl)phenylsulfanyl]-3-E-[2-(pyridin-2-yl)ethenyl]-1H-indazole], the 50% inhibitory concentration (IC50) under setting [1] is over 100 nM.
Regarding `O=C(N/N=C/c1ccccn1)c1ccccc1Sc1ccc2c(/C=C/c3ccccn3)n[nH]c2c1` [Example 36(b)], the IC50 under setting [1] was over 30 nM.
The same measure, in the same setting: as for `O=C(N/N=C/C(F)(F)F)c1ccccc1Sc1ccc2c(/C=C/c3ccccn3)n[nH]c2c1` [Example 36(c)], the figure is over 30 nM; as for `CNC(=O)c1cccc(F)c1Sc1ccc2c(/C=C/c3ccccn3)n[nH]c2c1` [Example 37(d), 6-[6-Fluoro-2-(methylcarbamoyl)phenylsulfanyl]-3-E-[2-(pyridin-2-yl)ethenyl]-1H-indazole], over 100 nM.
Consider `O=C(Nc1cccc(C(=O)c2ccc3c(/C=C/c4ccccn4)n[nH]c3c2)c1)Oc1ccccc1` [Example 41(cc), 6-[3-(Phenoxyamindo)benzoyl]-3-E-[2-(pyridin-2-yl)ethenyl]-1H-indazole], for which, under “Homo sapiens, HUVEC, read-out: HUVEC + albumin IC50”, the IC50 was over 100 nM.
Regarding `CC(=O)Nc1cc(C(=O)c2ccc3c(/C=C/c4ccccn4)n[nH]c3c2)c(C)cc1C` [Example 41(nn), 6-(5-Acetamido-2,4-dimethylbenzoyl)-3-E-[2-(pyridin-2-yl)ethenyl]-1H-indazole], the IC50 under setting [1] is over 100 nM.
Consider `Nc1cccc(C(=O)c2ccc3c(/C=N/n4cccc4)n[nH]c3c2)c1` [Example 44], for which the IC50 (Homo sapiens, HUVEC, read-out: HUVEC IC50) was over 700 nM.
Take `NC(=O)c1ccccc1Sc1ccc2c(/C=C/c3ccccn3)n[nH]c2c1` [H-X1]: where the note is “Library II, Y=S, 0.5 mM (column head; text: nominal 0.5 nM)”, the “% inhibition of the proliferation of HUVEC” value (from here on “% inhibition … of HUVEC”) amounted to 9%.
Regarding `O=C(NC1CCS(=O)(=O)C1)c1ccc2c(-c3nc4ccccc4[nH]3)n[nH]c2c1` (centres unmarked) [drawing 576], the “% inhibition … of HUVEC” value under setting [2] is 47%, the “% inhibition … of HUVEC” value under setting [3] turned out to be 10% and the “% inhibition … of HUVEC” value under setting [4] was 17%.
On to `O=C(Nc1ccc2[nH]c(=O)[nH]c2c1)c1ccc2c(-c3nc4ccccc4[nH]3)n[nH]c2c1` [drawing 582], for which the “% inhibition … of HUVEC” value was 42% under setting [2], 6% under setting [3] and 13% under setting [4].
As to `O=C(Nc1ccc(O)cc1)c1ccc2c(-c3nc4ccccc4[nH]3)n[nH]c2c1` [drawing 585], the “% inhibition … of HUVEC” value is 33% under setting [2], 3% under setting [3] and 32% under setting [4].
For `O=C(NC1CC1)c1ccc2c(-c3nc4ccccc4[nH]3)n[nH]c2c1` [drawing 587] the same measures were 20%, 0% and 43%.
Regarding `O=C(Nc1cnccn1)c1ccc2c(-c3nc4ccccc4[nH]3)n[nH]c2c1` [drawing 595], the “% inhibition … of HUVEC” value under setting [2] is listed as −11%, the “% inhibition … of HUVEC” value under setting [3] is given as −7% and the “% inhibition … of HUVEC” value under setting [4] is given as 52%.
For `O=C(Nc1ncnc2[nH]cnc12)c1ccc2c(-c3nc4ccccc4[nH]3)n[nH]c2c1` [drawing 600], the “% inhibition … of HUVEC” value under setting [2] is listed as 27%, the “% inhibition … of HUVEC” value under setting [3] is −9% and the “% inhibition … of HUVEC” value under setting [4] came to 52%.
